Experiment in all cases: Cytotoxicity assay (MTS, 72 hours)
Series [1] concerns Colo357-FG. It is filed as cell-based, human. As for the experimental part: (§1) Tumor cell lines were maintained in DMEM with 10% fetal bovine serum (FBS), 100 microg/ml streptomycin, and 100 IU/ml penicillin in 5% CO2 at 37° C.
Colo357-FG and Colo357-L3: Colo357-FG, a fast-growing variant produced regional lymph node metastasis in 58% of nude mice after subcutaneous implantation and growth. It also produced hepatic metastasis in 64% and pulmonary metastasis in 43% of nude mice after intrasplenic implantation of tumor cells. See Vezeridis et al. (1990).
(§2) For the cytotoxicity assays, 1,500 tumor cells were plated into 96-well flat-bottom tissue culture plates in complete medium (see Tables 2 and 3). After 20 hours fresh media containing different concentrations of compounds disclosed herein added. Cell number was counted after 72 hours by using MTS assay (Promega CellTiter AQ Non-Radioactive Cell Proliferation Assay kit, Madison, Wis., USA) by measuring absorbance at 490 nm with a 96-well plate reader. Data are presented as IC50 values derived from relative inhibition of proliferation plus SD of eight measurements. The number of cells in the presence of DMSO was taken as 100%.

Series [2] has as its system MDA-PATC-53. It is filed as cell-based. As for the experimental part:
as §1, §2

Series [3] deals with WM793. It is filed as cell-based, human. As for the experimental part: as §1
WM793 human melanoma tumor cell lines were used from different stages of progression and their biological and molecular analyses. See Satyamoorthy et al. (1997).
as §2

For series [4], the system named is HD2. It is filed as cell-based. The conditions noted are these: Table 3, Myeloma. As for the experimental part: After 20 hours fresh media containing different concentrations of compounds disclosed herein added. Cell number was counted after 72 hours by using MTS assay (Promega CellTiter AQ Non-Radioactive Cell Proliferation Assay kit, Madison, Wis., USA) by measuring absorbance at 490 nm with a 96-well plate reader. Data are presented as IC50 values derived from relative inhibition of proliferation plus SD of eight measurements. The number of cells in the presence of DMSO was taken as 100%.

Series [5] relates to Ovcar-5. It is filed as cell-based. As for the experimental part:
as §1, §2

Series [6] concerns PC3. The class given is cell-based. As for the experimental part:
as §1, §2

For series [7], the system named is MIA-PaCa-2. It is filed as cell-based. As for the experimental part: as §1, §2
The test system of series [8] is 231. It is filed as cell-based. To be noted: Table 3, Breast. As for the experimental part: as §1, §2
Series [9] deals with 231-MB. It is filed as cell-based. To be noted: Table 3, Breast. As for the experimental part: as §1, §2
Series [10] deals with BT483. The class given is cell-based. As for the experimental part: as §1, §2
Series [11] concerns U87MG. It is filed as cell-based. The conditions noted are these: Table 3, GBM. As for the experimental part: as §1, §2
Series [12] relates to SK-MEL-28. It is filed as cell-based. As for the experimental part: as §1, §2
Series [13] relates to HH. The class given is cell-based. The conditions noted are these: Table 3, CTCL. As for the experimental part:
as §1, §2

For series [14], the system named is BT-58. The class given is cell-based. To be noted: Table 3, Ependymoma. As for the experimental part:
as §1, §2

The test system of series [15] is MDA-PATC-108. It is filed as cell-based. The conditions noted are these: Table 3, Panc. As for the experimental part: as §1, §2
The test system of series [16] is 4T1. It is filed as cell-based. As for the experimental part: as §1, §2
For series [17], the system named is SU.86.86. The class given is cell-based. As for the experimental part: as §1, §2
For series [18], the system named is A375. The class given is cell-based. As for the experimental part: as §1, §2
Series [19] concerns HuT78. It is filed as cell-based. As for the experimental part:
as §1, §2

In series [20] the test system is WM35. The class given is cell-based. As for the experimental part:
as §1, §2

In series [21] the test system is LNZ-428. It is filed as cell-based. To be noted: Table 3, GBM. As for the experimental part: as §1, §2
Series [22] has as its system MDA-PATC-153. It is filed as cell-based. The conditions noted are these: Table 3, Panc. As for the experimental part: as §1, §2
In series [23] the test system is D423 enol. It is filed as cell-based. To be noted: Table 3, GBM. As for the experimental part:
as §1, §2

The subject of series [24] is D423. The class given is cell-based. To be noted: Table 3, GBM. As for the experimental part:
as §1, §2

The subject of series [25] is LN319. The class given is cell-based. The conditions noted are these: LN-319, Table 3, GBM. As for the experimental part:
as §1, §2

Series [26] has as its system MDA-PATC-148. The class given is cell-based. To be noted: Table 3, Panc. As for the experimental part:
as §1, §2

[27] abbreviates: Homo sapiens, COLO 357/FG, 72 h, Table 2, Colo357-FG.
The mark [28] stands for this setting: MDA-PATC53, 72 h, Table 2, MDA-PATC-53.

By IC50 is commonly meant the concentration that gives 50% inhibition. A higher IC50 goes with a need for much substance.

As to `CCN(CC)CCOc1ccc(C(CC)(CC)NC(=O)/C(C#N)=C/c2ccccn2)cc1` [WP 1727, (E)-2-cyano-N-(3-(4-(2-(diethylamino)ethoxy)phenyl)pentan-3-yl)-3-(pyridin-2-yl)acrylamide], the IC50 was 2.2 µM in series [1] (setting [27]) and 3 µM in series [2] (setting [28]).

As for `CCC(CC)(NC(=O)/C(C#N)=C/c1ccccn1)c1ccc(OCCOCCN2CCOCC2)cc1` [WP 1724, (E)-2-cyano-N-(3-(4-(2-(2-morpholinoethoxy)ethoxy)phenyl)pentan-3-yl)-3-(pyridin-2-yl)acrylamide], the values for the IC50 in [1] (setting [27]) and in series [2] (setting [28]) were 2.8 µM and 3.5 µM, respectively.

Take `CCCC(CCC)(NC(=O)/C(C#N)=C/c1cccc(Cl)n1)c1ccc(OCCN(CC)CC)cc1` [WP 1734, (E)-3-(6-chloropyridin-2-yl)-2-cyano-N-(4-(4-(2-(diethylamino)ethoxy)phenyl)heptan-4-yl)acrylamide]: the results for the IC50 in series [1] (setting [27]) and in series [2] (setting [28]) were 1.5 µM and 1.6 µM, respectively.

`C[C@H](NC(=O)/C(C#N)=C/c1cccc(Br)n1)c1ccccc1` [WP1066, reference compound]: the IC50 in [1] (Table 2, Colo357-FG) was 2.1 µM; in series [1] (Table 3, Panc) it was 2 µM; in [3] (Table 3, Melanoma) it was 2.1 µM; in series [4], 1.7 µM; in series [5] (Table 3, Ovarian), 1.7 µM; in series [6] (Table 3, Prostate), 2.3 µM. The concentration for half-maximal inhibition (IC50) in [7] (Table 3, Panc) is 1.7 µM; in [8] it was 4.8 µM; in series [9], 1.2 µM; in series [10] (Table 3, Breast), 4.2 µM; in [11] it was 1.7 µM; in series [12] (Table 3, Melanoma) it was 2 µM. For the same molecule, the half-inhibitory concentration (IC50) in [13] was found to be 2.3 µM; in [14], 1.8 µM; in [15] it was 2.4 µM; in series [16] (Table 3, Breast), 4.4 µM; in series [17] (Table 3, Panc) it was 2.5 µM; in [2] (Table 2, MDA-PATC-53) it was 2.4 µM. For the same molecule, the IC50 amounted to 2.4 µM in [2] (Table 3, Panc); 1.5 µM in series [18] (Table 3, Melanoma); 1.9 µM in series [19] (Table 3, CTCL); 1.3 µM in series [20] (Table 3, Melanoma); 1.5 µM in series [21].

Turning to `CCC(CC)(NC(=O)/C(C#N)=C/c1cccc(Cl)n1)c1ccc(OCCOCCN2CCN(C)CC2)cc1` [WP1732], the half-inhibitory concentration (IC50) in series [1] (Homo sapiens, COLO 357/FG, 72 h, Table 3, Panc) worked out at 2.6 µM; in series [3] (Homo sapiens, WM793, Table 3, Melanoma) it was 1.8 µM; in series [4], 3.8 µM; in series [5] (Homo sapiens, OVCAR-5, Table 3, Ovarian) it was 1.7 µM; in series [6] (Homo sapiens, PC-3, Table 3, Prostate), 1.4 µM; in series [7] (Homo sapiens, MIA PaCa-2, Table 3, Panc), 1.6 µM. Further, the IC50 turned out to be 2.6 µM in [22]; 2.5 µM in [23]; 1.4 µM in series [24]; 2.8 µM in series [8]; 1.5 µM in series [9]; 2.3 µM in [10] (Homo sapiens, BT-483, Table 3, Breast). Further, the IC50 in [11] (Homo sapiens, U-87 MG) worked out at 1.8 µM; in series [25], 2.8 µM; in [12] (Homo sapiens, SK-MEL-28, Table 3, Melanoma) it was 1.8 µM; in [13] (Homo sapiens, HH) it was 3.2 µM; in series [14], 1.8 µM; in [15] it was 1.6 µM. For the same molecule, the IC50 in series [16] (Mus musculus, 4T1, Table 3, Breast) turned out to be 4.5 µM; in series [17] (Homo sapiens, SU.86.86, Table 3, Panc) it was 1.5 µM; in [2] (MDA-PATC53, 72 h, Table 3, Panc) it was 1.8 µM; in [18] (Homo sapiens, A-375, Table 3, Melanoma), 1.1 µM; in series [19] (Homo sapiens, HuT78, Table 3, CTCL), 2.9 µM; in [26] it was 1.9 µM. In addition, the concentration for half-maximal inhibition (IC50) turned out to be 2.3 µM in series [20] (WM35, Table 3, Melanoma) and 2.3 µM in series [21].

For `CCC(CC)(NC(=O)/C(C#N)=C/c1cccc(Cl)n1)c1ccc(OCCOCCN2CCOCC2)cc1` [WP 1723, (E)-3-(6-chloropyridin-2-yl)-2-cyano-N-(3-(4-(2-(2-morpholinoethoxy)ethoxy)phenyl)pentan-3-yl)acrylamide], the IC50 in series [1] (setting [27]) stood at 1.2 µM; in [2] (setting [28]), 1.4 µM.

For the molecule `CCCC(CCC)(NC(=O)/C(C#N)=C/c1cccc(Cl)n1)c1ccc(OCCN2CCOCC2)cc1` [WP 1733, (E)-3-(6-chloropyridin-2-yl)-2-cyano-N-(4-(4-(2-morpholinoethoxy)phenyl)heptan-4-yl)acrylamide], the IC50 stood at 0.95 µM in [1] (setting [27]) and 1.1 µM in [2] (setting [28]).

With `CCC(CC)(NC(=O)/C(C#N)=C/c1cccc(Cl)n1)c1ccc(OCCOCCN2CCN(C)CC2)cc1` [WP 1731, (E)-3-(6-chloropyridin-2-yl)-2-cyano-N-(3-(4-(2-(2-(4-methylpiperazin-1-yl)ethoxy)ethoxy)phenyl)pentan-3-yl)acrylamide], the IC50 worked out at 1.5 µM in series [1] (setting [27]) and 1.8 µM in series [2] (setting [28]).

Regarding `CCC(CC)(NC(=O)/C(C#N)=C/c1cccc(Cl)n1)c1ccc(OCCN2CCOCC2)cc1` [WP 1793], the IC50 in series [1] (Table 2, Colo357-FG) turned out to be 0.8 µM; in series [2] (Table 2, MDA-PATC-53), 1 µM.

On to `CCC(CC)(NC(=O)/C(C#N)=C/c1cccc(Cl)n1)c1ccc(OCCN2CCOCC2)cc1` [WP 1721, (E)-3-(6-chloropyridin-2-yl)-2-cyano-N-(3-(4-(2-morpholinoethoxy)phenyl)pentan-3-yl)acrylamide], for which the IC50 in series [1] (setting [27]) and in [2] (setting [28]) was 1.1 µM throughout.

Take `CCN(CC)CCOc1ccc(C(CC)(CC)NC(=O)/C(C#N)=C/c2cccc(Cl)n2)cc1` [WP 1794]: the results for the IC50 in series [1] (setting [27]) and in series [2] (setting [28]) were 0.6 µM and 0.9 µM, respectively.

Turning to `CCN(CC)CCOc1ccc(C(CC)(CC)NC(=O)/C(C#N)=C/c2cccc(Cl)n2)cc1` [WP 1722, (E)-3-(6-chloropyridin-2-yl)-2-cyano-N-(3-(4-(2-(diethylamino)ethoxy)phenyl)pentan-3-yl)acrylamide], the IC50 in series [1] (Table 2, Colo357-FG) was 1.2 µM; in series [2] (Table 2, MDA-PATC-53) it was 1.1 µM.

These data come from patent publication US10703721B2, “Caffeic acid derivatives and uses thereof” (Board of Regents, The University of Texas System, priority 2017, dated 2020).
